# Tested on: Endothelial cell
# Experiment: Inhibition of human umbilical vein endothelial cell adhesion to fibrinogen, vitronectin and fibronectin coated surfaces;NI means no inhibition at 300 uM
# Type: functional, cell-based
row,SMILES,inhibition
1,O=C(O)CCNC(=O)c1cc2n(c1)CCN(CCC1CCNCC1)C2=O,No inhibition

# Target: Integrin alpha-IIb/beta-3 (Homo sapiens, UniProt P05106+P08514)
# Experiment: Inhibition of fibrinogen binding to glycoprotein alpha IIb beta-3 integrin of activated platelets
# Chain of Integrin alpha-IIb/beta-3 (P05106 27-788 limits assumed): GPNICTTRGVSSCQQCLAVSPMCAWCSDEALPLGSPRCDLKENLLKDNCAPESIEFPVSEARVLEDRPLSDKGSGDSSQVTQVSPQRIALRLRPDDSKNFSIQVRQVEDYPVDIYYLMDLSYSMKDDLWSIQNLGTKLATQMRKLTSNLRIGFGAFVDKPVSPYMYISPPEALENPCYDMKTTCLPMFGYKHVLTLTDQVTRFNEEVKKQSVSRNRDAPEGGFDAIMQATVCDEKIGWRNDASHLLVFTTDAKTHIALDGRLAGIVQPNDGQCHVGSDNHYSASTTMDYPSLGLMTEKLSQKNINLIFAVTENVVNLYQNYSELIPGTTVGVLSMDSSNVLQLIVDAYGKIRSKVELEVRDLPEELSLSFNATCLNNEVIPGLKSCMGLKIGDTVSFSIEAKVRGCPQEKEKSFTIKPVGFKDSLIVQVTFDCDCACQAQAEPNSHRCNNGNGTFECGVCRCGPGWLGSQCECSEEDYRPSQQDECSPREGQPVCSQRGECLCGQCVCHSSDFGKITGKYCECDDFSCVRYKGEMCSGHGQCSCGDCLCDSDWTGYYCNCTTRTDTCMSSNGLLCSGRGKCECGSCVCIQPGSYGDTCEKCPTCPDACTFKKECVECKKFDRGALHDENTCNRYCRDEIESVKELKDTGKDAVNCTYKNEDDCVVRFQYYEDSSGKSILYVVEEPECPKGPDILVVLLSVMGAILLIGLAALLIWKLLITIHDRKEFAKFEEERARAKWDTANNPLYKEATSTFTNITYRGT
# Chain of Integrin alpha-IIb/beta-3 (P08514 32-887 limits assumed): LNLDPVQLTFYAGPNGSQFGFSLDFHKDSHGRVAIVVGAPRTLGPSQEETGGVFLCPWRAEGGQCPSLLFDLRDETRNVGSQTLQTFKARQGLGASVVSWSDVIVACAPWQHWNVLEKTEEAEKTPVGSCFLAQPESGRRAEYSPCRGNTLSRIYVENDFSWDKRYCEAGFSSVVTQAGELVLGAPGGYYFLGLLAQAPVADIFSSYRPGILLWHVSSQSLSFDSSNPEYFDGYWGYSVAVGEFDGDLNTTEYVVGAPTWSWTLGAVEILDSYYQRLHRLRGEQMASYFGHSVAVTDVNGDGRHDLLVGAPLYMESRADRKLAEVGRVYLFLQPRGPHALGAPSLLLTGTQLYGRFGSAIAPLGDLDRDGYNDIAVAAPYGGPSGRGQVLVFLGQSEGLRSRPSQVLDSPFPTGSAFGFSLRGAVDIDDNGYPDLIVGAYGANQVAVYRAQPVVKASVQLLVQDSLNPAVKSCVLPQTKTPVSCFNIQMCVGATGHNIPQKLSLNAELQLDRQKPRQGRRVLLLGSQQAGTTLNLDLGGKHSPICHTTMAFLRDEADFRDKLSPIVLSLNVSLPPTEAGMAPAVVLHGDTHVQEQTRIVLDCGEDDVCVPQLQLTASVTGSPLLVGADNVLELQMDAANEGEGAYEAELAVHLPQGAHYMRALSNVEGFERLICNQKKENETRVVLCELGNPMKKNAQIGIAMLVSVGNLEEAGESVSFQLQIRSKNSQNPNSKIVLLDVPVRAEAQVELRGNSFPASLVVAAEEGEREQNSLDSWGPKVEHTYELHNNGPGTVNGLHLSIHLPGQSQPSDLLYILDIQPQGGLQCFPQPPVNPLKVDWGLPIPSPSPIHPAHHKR
# Chain of Integrin alpha-IIb/beta-3 (P08514 891-1039 limits assumed): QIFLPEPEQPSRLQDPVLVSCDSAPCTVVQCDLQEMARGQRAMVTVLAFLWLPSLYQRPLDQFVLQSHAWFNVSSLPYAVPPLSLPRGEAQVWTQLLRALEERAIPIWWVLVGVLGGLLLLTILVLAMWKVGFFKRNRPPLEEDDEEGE
row,SMILES,IC50
1,O=C(O)CCNC(=O)c1cc2n(c1)CCCN(CCC1CCNCC1)C2=O,170 nM
2,O=C(O)CCNC(=O)c1cn2c(c1-c1ccccc1)C(=O)N(CCC1CCNCC1)CCC2,> 300000 nM
3,O=C(O)CCNC(=O)c1cc2n(n1)CCN(CCCC1CCNCC1)C2=O,1300 nM
4,Cc1c(C(=O)NCCC(=O)O)cn2c1C(=O)N(CCC1CCNCC1)CCC2,510 nM
5,O=C(O)CCNC(=O)c1cc2n(n1)CCN(CC1CCNCC1)C2=O,45000 nM
6,O=C(O)CNC(=O)c1cc2n(n1)CCN(CCCC1CCNCC1)C2=O,14000 nM
7,Cc1c(C(=O)NCCC(=O)O)cn2c1C(=O)N(CCC1CCNCC1)CC2,170 nM
8,O=C(O)CCN1CCn2nc(C(=O)NCCC3CCNCC3)cc2C1=O,31000 nM
9,O=C(O)CCCNC(=O)c1cc2n(n1)CCN(CC1CCNCC1)C2=O,15000 nM
10,O=C(O)CCNC(=O)c1cc2n(n1)CCN(CCC1CCNCC1)C2=O,250 nM
11,O=C(O)CCNC(=O)c1cc2n(c1)CCN(CCC1CCNCC1)C2=O,79 nM
